# According to patent US20240067613A1, “NOVEL QUINAZOLINE DERIVATIVES AS SOS1 INHIBITORS AND USE THEREOF” (HANMI PHARMACEUTICAL CO., LTD., priority 2020, published 2024):
# Biological target: T1, SOS1 binding to KRAS G12C (Homo sapiens, UniProt Q07889)
# T1 construct: consisting of amino acid residues 564 to 1049 which are the catalytic domain; purchased Reaction Biology Corporation MSC-11-502 (SOS1-Strep); MSC-11-538 (KRAS G12C)
# T1 sequence (Q07889 564-1049): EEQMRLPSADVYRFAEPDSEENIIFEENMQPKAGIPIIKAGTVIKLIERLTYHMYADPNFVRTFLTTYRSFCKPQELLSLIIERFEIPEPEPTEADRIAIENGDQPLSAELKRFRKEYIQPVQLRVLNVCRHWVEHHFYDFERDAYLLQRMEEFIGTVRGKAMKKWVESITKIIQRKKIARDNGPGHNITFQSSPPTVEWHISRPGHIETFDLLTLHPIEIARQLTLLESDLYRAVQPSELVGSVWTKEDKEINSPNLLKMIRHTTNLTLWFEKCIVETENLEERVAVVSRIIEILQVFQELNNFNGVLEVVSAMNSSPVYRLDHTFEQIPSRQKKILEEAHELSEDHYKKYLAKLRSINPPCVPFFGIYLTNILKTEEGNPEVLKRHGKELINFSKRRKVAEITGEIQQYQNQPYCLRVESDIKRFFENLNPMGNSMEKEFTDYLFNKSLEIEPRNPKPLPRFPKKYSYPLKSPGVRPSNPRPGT
# Assay: SOS1 GTP substitution inhibition test (HTRF/TR-FRET, KRAS G12C-SOS1 binding inhibitory ability)
# Format: biochemical
# Conditions: HTRF, GST-KRAS G12C (2-169), SOS1-Strep (564-1049), 1.6, 8, 40, 200, 1,000 nM
row,SMILES,IC50 [nM]
1,COc1cc2c(N[C@H](C)c3cc(NC(=O)C(F)(F)F)cc(C(F)(F)F)c3)nc(C)nc2cc1C(=O)N1CCOCC1 [Example 10],> 100
2,"COc1cc2c(N[C@H](C)c3cc(N)cc(C(F)(F)F)c3)nc(C)nc2cc1C(=O)N1CCC1 [Example 7, (R)-(4-((1-(3-amino-5-(trifluoromethyl)phenyl)ethyl)amino)-6-methoxy-2-methylquinazoline-7-yl)(azetidine-1-yl)methanone]",> 100
3,"COc1cc2c(N[C@H](C)c3cc(N)cc(C(F)(F)F)c3)nc(C)nc2cc1C(=O)N1CCSCC1 [Example 4, (R)-(4-((1-(3-amino-5-(trifluoromethyl)phenyl)ethyl)amino)-6-methoxy-2-methylquinazoline-7-yl)(thiomorpholino)methanone]",50 to 100
4,"COc1cc2c(N[C@H](C)c3cc(N)cc(C(F)(F)F)c3)nc(C)nc2cc1CN1CCOCC1 [Example 34, (R)-N-(1-(3-amino-5-(trifluoromethyl)phenyl)ethyl)-6-methoxy-2-methyl-7-(morpholinomethyl)quinazoline-4-amine]",> 100
5,"COc1cc2c(N[C@H](C)c3cc(C)cc(N)c3)nc(C)nc2cc1C(=O)N1CCOCC1 [Example 21, (R)-(4-((1-(3-amino-5-methylphenyl)ethyl)amino)-6-methoxy-2-methylquinazolin-7-yl)(morpholino)methanone]",50 to 100

# Second part, the molecule after the results:
row,IC50 [nM],SMILES
1,≤ 50,"CNc1cc2c(N[C@H](C)c3cc(N)cc(C(F)F)c3F)nc(C)nc2cc1C(=O)N1CC2COCC2C1 (stereo partly drawn) [Example 63, (4-(((R)-1-(5-amino-3-(difluoromethyl)-2-fluorophenyl)ethyl)amino)-2-methyl-6-(methylamino)quinazoline-7-yl)(tetrahydro-1H-furo[3,4-c]pyrrol-5(3H)-yl)methanone]"
2,≤ 50,"COCCNc1cc2c(N[C@H](C)c3cc(N)cc(C(F)(F)F)c3)nc(C)nc2cc1C(=O)N1CCS(=O)(=O)CC1 [Example 68, (R)-(4-((1-(3-amino-5-(trifluoromethyl)phenyl)ethyl)amino)-6-((2-methoxyethyl)amino)-2-methylquinazoline-7-yl)(1,1-dioxothiomorpholino)methanone]"
3,≤ 50,"CNc1cc2c(N[C@H](C)c3cc(N)cc(C(F)(F)F)c3)nc(C)nc2cc1C(=O)N1CCSCC1 [Example 60, (R)-(4-((1-(3-amino-5-(trifluoromethyl)phenyl)ethyl)amino)-2-methyl-6-(methylamino)quinazolin-7-yl)(thiomorpholino)methanone]"
